Test results from BindingDB's records for PubMed 8100350 (University of Pennsylvania, 1993).
*1 amine or outer side, *2 acyl side, *3 side chain or, on linkers, in order; H or OH if unused. Where a SMILES comes first, the peptide text is derived from it. Bridges are numbered along the chain shown (N, C = ends). [ ]: non-standard residue; d: D form. The star is where a group is joined. ξ: configuration not given here. NH(1-naphthylmethyl) = c1ccc2c(CN*)cccc2c1; Phe(4-Cl) = N[C@@H](Cc1ccc(Cl)cc1)C(=O)O; dPhe(4-Cl) = N[C@H](Cc1ccc(Cl)cc1)C(=O)O; 1Nal = N[CH](Cc1cccc2ccccc12)C(=O)O; 2Nal = N[C@@H](Cc1ccc2ccccc2c1)C(=O)O; d2Nal = N[C@H](Cc1ccc2ccccc2c1)C(=O)O; dNMeF = CN[C@H](Cc1ccccc1)C(=O)O; X1 = O=C(C(N[*:1])S[*:3])[*:2]; Thr(3ξ) = CC(O)[C@H](N)C(=O)O; Thr(ol) = C[CH](O)[CH](N)CO; NMeA = CN[C@@H](C)C(=O)O; dNMeA = CN[C@H](C)C(=O)O; Abu = CC[C@H](N)C(=O)O; Ahp = NCCCCCCC(=O)O; Ahx = NCCCCCC(=O)O; Bn = c1ccc(C*)cc1; ξC = NC(CS)C(=O)O; Mpa = O=C(O)CCS

Key:
[1] = target: Somatostatin receptor type 1 (Homo sapiens, UniProt P30872)
[2] = target: Somatostatin receptor type 2 (Mus musculus, UniProt P30875)
[3] = target: Somatostatin receptor type 3 (Mus musculus, UniProt P30935)
Somatostatin receptor type 3, sequence (P30935 whole entry): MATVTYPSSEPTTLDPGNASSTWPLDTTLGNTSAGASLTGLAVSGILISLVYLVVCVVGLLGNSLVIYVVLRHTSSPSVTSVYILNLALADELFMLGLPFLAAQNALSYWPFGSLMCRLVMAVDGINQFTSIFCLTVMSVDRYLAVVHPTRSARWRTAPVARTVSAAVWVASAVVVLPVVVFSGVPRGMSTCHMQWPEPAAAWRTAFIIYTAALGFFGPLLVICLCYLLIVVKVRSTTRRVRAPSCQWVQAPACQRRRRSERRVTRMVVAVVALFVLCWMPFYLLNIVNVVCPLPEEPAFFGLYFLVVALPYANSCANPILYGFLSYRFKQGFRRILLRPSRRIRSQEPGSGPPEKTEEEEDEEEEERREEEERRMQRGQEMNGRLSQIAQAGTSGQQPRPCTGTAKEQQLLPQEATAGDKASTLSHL

Somatostatin receptor type 1, sequence (P30872 whole entry): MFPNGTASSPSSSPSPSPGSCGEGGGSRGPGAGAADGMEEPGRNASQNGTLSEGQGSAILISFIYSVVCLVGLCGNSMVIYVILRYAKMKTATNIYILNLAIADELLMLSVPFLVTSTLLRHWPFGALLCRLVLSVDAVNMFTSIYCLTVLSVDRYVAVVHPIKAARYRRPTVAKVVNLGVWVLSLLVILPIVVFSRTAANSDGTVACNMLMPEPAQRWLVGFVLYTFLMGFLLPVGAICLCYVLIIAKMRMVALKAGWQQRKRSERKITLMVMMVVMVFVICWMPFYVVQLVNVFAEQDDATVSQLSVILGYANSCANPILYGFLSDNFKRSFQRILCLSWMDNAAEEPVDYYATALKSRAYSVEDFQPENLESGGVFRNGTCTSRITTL
Somatostatin receptor type 2, sequence (P30875 whole entry): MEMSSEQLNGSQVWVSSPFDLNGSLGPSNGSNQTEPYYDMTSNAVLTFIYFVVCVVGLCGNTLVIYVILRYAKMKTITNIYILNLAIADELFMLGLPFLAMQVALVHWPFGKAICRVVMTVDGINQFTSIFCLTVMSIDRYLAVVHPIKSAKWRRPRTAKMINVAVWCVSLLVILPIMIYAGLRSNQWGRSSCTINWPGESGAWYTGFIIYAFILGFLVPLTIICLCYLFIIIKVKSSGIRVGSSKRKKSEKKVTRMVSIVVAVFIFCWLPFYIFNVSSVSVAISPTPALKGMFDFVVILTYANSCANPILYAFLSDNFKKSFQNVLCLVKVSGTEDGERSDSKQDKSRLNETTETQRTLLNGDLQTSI

Ki [1] [nM] | Ki [2] [nM] | Ki [3] [nM] | SMILES
1000 | 6.1 | 152 | CC(C)[C@H](NC(=O)[C@H](CCCCN)NC(=O)[C@@H](Cc1c[nH]c2ccccc12)NC(=O)[C@H](Cc1ccc(O)cc1)NC(=O)[C@H](C)NC(=O)[C@H](N)Cc1ccccc1)C(=O)N[C@@H](C)C(=O)N[C@@H](Cc1ccc2ccccc2c1)C(N)=O [L-Alaninamide,D-phenylalanyl-L-alanyl-L-tyrosyl-D-tryptophyl-L-lysyl-L-valyl-L-alanyl-3-(2-naphthalenyl)-(9CI)] (H-[dF]AY[dW]KVA[2Nal]-NH2)
183 | 1000 | 73 | C[C@@H](OCc1ccccc1)[C@@H]1NC(=O)[C@H](CCCCN)NC(=O)[C@@H](Cc2c[nH]c3ccccc23)NC(=O)[C@H](Cc2ccccc2)NC(=O)CCCCCNC1=O [c[Ahx-Phe-D-Trp-Lys-Thr(Bzl)]] (cyclo([Ahx]F[dW]KT(Bn)))
1000 | 6.1 | 133 | CC(C)[C@@H]1NC(=O)[C@H](CCCCN)NC(=O)[C@@H](Cc2c[nH]c3ccccc23)NC(=O)[C@H](Cc2ccc(O)cc2)NC(=O)CCSSC(C(=O)N[C@@H](Cc2ccccc2)C(N)=O)NC1=O (some centres undefined) [CAS_117580-24-2] ([Mpa]Y[dW]KV[X1]F-NH2; disulfide 1-6)
1000 | > 10000 | 38 | CC(C)[C@H](NC(=O)[C@H](CCCCN)NC(=O)[C@@H](Cc1c[nH]c2ccccc12)NC(=O)[C@H](Cc1ccc(O)cc1)NC(=O)[C@H](Cc1ccccc1)NC(=O)[C@H](N)Cc1ccccc1)C(=O)N[C@@H](Cc1ccccc1)C(=O)N[C@H](Cc1ccccc1)C(N)=O [D-Phe-Phe-Tyr-D-Trp-Lys-Val-Phe-D-Phe-NH2] (H-[dF]FY[dW]KVF[dF]-NH2)
1000 | 1000 | 1000 | C[C@@H](O)[C@@H]1NC(=O)[C@H](CCCCN)NC(=O)[C@@H](Cc2c[nH]c3ccccc23)NC(=O)[C@H](Cc2ccccc2)NC(=O)CCCCCCNC1=O [c[Aha-Phe-D-Trp-Lys-Thr]] (cyclo([Ahp]F[dW]KT))
1000 | 7.8 | 111 | CC(O)[C@H](NC(=O)[C@H](CCCCN)NC(=O)[C@@H](Cc1c[nH]c2ccccc12)NC(=O)[C@H](Cc1ccc(O)cc1)NC(=O)[C@@H](C)NC(=O)[C@@H](N)Cc1ccccc1)C(=O)N[C@@H](C)C(=O)N[C@@H](Cc1cccc2ccccc12)C(N)=O (some centres undefined) [BIM 23070] (H-F[dA]Y[dW]K[Thr(3ξ)]A[1Nal]-NH2)
1000 | 83 | 0.08 | C[C@@H](O)[C@@H]1NC(=O)[C@H](CCCCN)NC(=O)[C@@H](Cc2c[nH]c3ccccc23)NC(=O)[C@H](Cc2ccccc2)NC(=O)[C@@H]2CSSCC(NC1=O)C(=O)NCCCCCCC(=O)N2 [(1R,4S,7S,10R,13S,16R)-4-[(R)-1-Hydroxyethyl]-7-(4-aminobutyl)-10-(1H-indole-3-ylmethyl)-13-benzyl-28,29-dithia-2,5,8,11,14,17,25-heptaazabicyclo[14.10.4]triacontane-3,6,9,12,15,18,26-heptone] (cyclo([Ahp]CF[dW]KT[ξC]); disulfide 2-7)
1000 | 0.01 | 17.4 | CC(O)C1NC(=O)C(CCCCN)NC(=O)C(Cc2c[nH]c3ccccc23)NC(=O)C(Cc2ccc(O)cc2)NC(=O)C(NC(=O)C(N)Cc2ccccc2)CSSCC(C(=O)NCc2cccc3ccccc23)NC1=O (centres undefined) [BIM 23060] (H-FCYWKTC-{NH(1-naphthylmethyl)}; disulfide 2-7; configuration not given here)
1000 | 248 | 81 | CC(C)[C@H](NC(=O)[C@H](CCCCN)NC(=O)[C@@H](Cc1c[nH]c2ccccc12)NC(=O)[C@H](Cc1ccc(O)cc1)NC(=O)[C@H](Cc1ccc(Cl)cc1)NC(=O)[C@@H](N)Cc1ccccc1)C(=O)N[C@@H](Cc1ccccc1)C(=O)N[C@@H](Cc1ccc2ccccc2c1)C(N)=O [BIM 23063] (H-F[Phe(4-Cl)]Y[dW]KVF[2Nal]-NH2)
1000 | 836 | 72 | CC(O)[C@H](NC(=O)[C@H](CCCCN)NC(=O)[C@@H](Cc1c[nH]c2ccccc12)NC(=O)[C@H](Cc1ccccc1)NC(=O)[C@@H](C)NC(=O)[C@@H](N)Cc1ccccc1)C(=O)N[C@@H](C)C(=O)N[C@H](C(N)=O)[C@@H](C)O (some centres undefined) [BIM 23051] (H-F[dA]F[dW]K[Thr(3ξ)]AT-NH2)
1000 | 4.2 | 207 | CC(C)[C@@H]1NC(=O)[C@H](CCCCN)NC(=O)[C@@H](Cc2c[nH]c3ccccc23)NC(=O)[C@H](Cc2ccc(O)cc2)NC(=O)[C@@H](NC(=O)[C@H](N)Cc2ccc3ccccc3c2)CSSC[C@@H](C(=O)N[C@@H](Cc2ccc3ccccc3c2)C(N)=O)NC1=O [BIM 23042] (H-[d2Nal]CY[dW]KVC[2Nal]-NH2; disulfide 2-7)
241 | 0.93 | 166 | CC(C)C1NC(=O)C(CCCCN)NC(=O)C(Cc2c[nH]c3ccccc23)NC(=O)C(Cc2ccc(O)cc2)NC(=O)C(NC(=O)C(N)Cc2cccc3ccccc23)CSSCC(C(=O)NC(CO)C(C)O)NC1=O (centres undefined) [DC23-60] (H-[1Nal]CYWKVC[Thr(ol)]; disulfide 2-7; configuration not given here)
1000 | 0.001 | 13.5 | CC[C@@H]1NC(=O)[C@H](CCCCN)NC(=O)[C@@H](Cc2c[nH]c3ccccc23)NC(=O)[C@H](Cc2ccc(O)cc2)NC(=O)[C@@H](NC(=O)[C@H](N)Cc2ccccc2)CSSC[C@@H](C(=O)N[C@H](C(N)=O)[C@@H](C)O)NC1=O [D-Phe-L-Cys(1)-L-Tyr-D-Trp-L-Lys-L-Abu-L-Cys(1)-L-Thr-NH2]
1000 | 26 | 18.9 | C[C@H](O)[C@H]1NC(=O)[C@H](CCCCN)NC(=O)[C@@H](Cc2c[nH]c3ccccc23)NC(=O)[C@@H](Cc2ccccc2)NC(=O)[C@@H](C)N(C)C(=O)[C@@H](Cc2ccccc2)N(C)C1=O [N-Methylcyclo(D-Ala-D-Phe-D-Trp-L-Lys-D-Thr-N-methyl-D-Phe-)] (cyclo(K[dT][dNMeF][dNMeA][dF][dW]))
1000 | 22 | 143 | CC(C)[C@H](NC(=O)[C@H](CCCCN)NC(=O)[C@@H](Cc1c[nH]c2ccccc12)NC(=O)[C@H](Cc1ccc(O)cc1)NC(=O)[C@H](C)NC(=O)[C@H](N)Cc1ccc(Cl)cc1)C(=O)N[C@@H](C)C(=O)N[C@@H](Cc1ccc2ccccc2c1)C(N)=O [CAS_150155-67-2] (H-[dPhe(4-Cl)]AY[dW]KVA[2Nal]-NH2)
580 | 8.3 | 24 | C[C@@H](O)[C@@H]1NC(=O)[C@H](CCCCN)NC(=O)[C@@H](Cc2c[nH]c3ccccc23)NC(=O)[C@H](Cc2ccc(Cl)cc2)NC(=O)[C@H](Cc2ccccc2)NC(=O)CCCCCCNC(=O)[C@H](Cc2ccccc2)NC1=O [L-362862] (cyclo([Ahp]F[Phe(4-Cl)][dW]KTF))
1000 | 0.001 | 2.4 | CC[C@@H]1NC(=O)[C@H](CCCCN)NC(=O)[C@@H](Cc2c[nH]c3ccccc23)NC(=O)[C@H](Cc2ccc(O)cc2)NC(=O)[C@H](C)N(C)C(=O)[C@H](Cc2ccccc2)NC1=O [BIM-23027] (cyclo([Abu]F[NMeA]Y[dW]K))
1000 | 0.15 | 0.8 | C[C@@H](O)[C@H](NC(=O)[C@H](Cc1ccccc1)NC(=O)[C@@H](NC(=O)[C@H](CCCCN)NC(=O)[C@@H](Cc1c[nH]c2ccccc12)NC(=O)[C@H](Cc1ccc(O)cc1)NC(=O)[C@H](Cc1ccc(Cl)cc1)NC(=O)[C@H](N)Cc1ccccc1)[C@@H](C)O)C(N)=O [BIM 23068] (H-[dF][Phe(4-Cl)]Y[dW]KTFT-NH2)
